ChEMBL document CHEMBL1134440, “Discovery of 4-amino-5-(3-bromophenyl)-7-(6-morpholino-pyridin-3-yl)pyrido[2,3-d]pyrimidine, an orally active, non-nucleoside adenosine kinase inhibitor” (J Med Chem, 2001)

Experiments:
[1] = target: Adenosine kinase (Rattus norvegicus, UniProt Q64640); experiment: In vitro inhibition of Adenosine kinase (AK)
[2] = target: Adenosine kinase (Homo sapiens, UniProt P55263); experiment: Inhibition of adenosine phosphorylation in confluent IMR-32 (human neuroblastoma) cells.; type: functional, cell-based
Chain of Adenosine kinase (Homo sapiens, UniProt P55263) (P55263 whole entry): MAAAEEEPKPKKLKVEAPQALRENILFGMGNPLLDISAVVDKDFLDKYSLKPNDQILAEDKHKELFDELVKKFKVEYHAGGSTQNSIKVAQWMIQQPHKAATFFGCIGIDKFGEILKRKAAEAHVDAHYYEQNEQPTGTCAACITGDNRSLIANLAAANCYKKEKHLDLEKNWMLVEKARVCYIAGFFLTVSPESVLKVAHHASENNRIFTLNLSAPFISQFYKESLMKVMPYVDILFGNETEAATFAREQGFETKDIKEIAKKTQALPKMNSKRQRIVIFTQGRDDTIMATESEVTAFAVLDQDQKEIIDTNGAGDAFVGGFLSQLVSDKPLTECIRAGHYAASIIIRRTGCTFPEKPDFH

Chain of Adenosine kinase (Rattus norvegicus, UniProt Q64640) (Q64640 whole entry): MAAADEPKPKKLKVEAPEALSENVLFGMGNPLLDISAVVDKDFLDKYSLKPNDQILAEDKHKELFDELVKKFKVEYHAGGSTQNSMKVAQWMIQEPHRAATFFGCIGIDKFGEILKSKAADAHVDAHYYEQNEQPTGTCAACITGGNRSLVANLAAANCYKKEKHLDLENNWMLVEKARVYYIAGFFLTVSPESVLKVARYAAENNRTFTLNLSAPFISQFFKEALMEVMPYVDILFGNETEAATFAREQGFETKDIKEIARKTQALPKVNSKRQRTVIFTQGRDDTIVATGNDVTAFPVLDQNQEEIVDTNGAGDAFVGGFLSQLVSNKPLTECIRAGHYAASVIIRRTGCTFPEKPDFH

Compound | IC50 [1] [nM] | IC50 [2] [nM]
CN(C)c1ccc(-c2cc(C3CCCCC3)c3c(N)ncnc3n2)cc1 | 8.3 | 467
COC(=O)c1cccc(-c2cc3c(N)ncnc3nc2-c2ccc(N(C)C)cc2)c1 | 66.7 | 700
Nc1ncnc2nc(-c3ccc(N4CCOCC4)cc3)cnc12 | 400 | 1000
Nc1ncnc2nc(-c3ccc(N4CCOCC4)nc3)cc(-c3cccc(Br)c3)c12 | 1.7 | 50
C[C@H]1O[C@@H](n2cc(-c3ccccc3)c3c(Nc4ccc(F)cc4)ncnc32)[C@H](O)[C@@H]1O | 2.8 | 134
CN(C)c1ccc(-c2cnc3c(N)ncnc3n2)cc1 | 440 | 3600
CN(C)c1ccc(-c2nc3ncnc(N)c3cc2-c2ccc(C(C)(C)C)cc2)cc1 | 62.5 | > 1000
Cc1ccc(-c2cc3c(N)ncnc3nc2-c2ccc(N(C)C)cc2)cc1 | 73.3 | 500
CN(C)c1ccc(-c2cc(-c3ccccc3)c3c(N)ncnc3n2)cc1 |  | 467
CN(C)c1ccc(-c2cc(-c3cccc(Br)c3)c3c(N)ncnc3n2)cc1 |  | 167

Now from value to compound:

IC50 [1] [nM] | IC50 [2] [nM] | Compound
15 | 6330 | NC[C@H]1O[C@@H](n2cnc3c(N)ncnc32)[C@H](O)[C@@H]1O
91.7 | 567 | COc1ccc(-c2cc3c(N)ncnc3nc2-c2ccc(N(C)C)cc2)cc1
773 | > 10000 | CN(C)c1ccc(-c2ccc3c(N)ncnc3n2)cc1
2000 | 26000 | Nc1ncnc(N[C@@H]2O[C@H](CO)[C@@H](O)[C@H]2O)c1[N+](=O)[O-]
25 | 333 | CN(C)c1ccc(-c2nc3ncnc(N)c3nc2-c2ccccc2)cc1
4750 | > 10000 | Nc1ncnc2nc(-c3ccc([N+](=O)[O-])cc3)cnc12
5500 | > 10000 | Nc1ncnc2nc(-c3ccccc3)cnc12
1750 | > 10000 | Nc1ccc(-c2cnc3c(N)ncnc3n2)cc1
2000 | > 10000 | COc1ccc(-c2cnc3c(N)ncnc3n2)cc1
1.8 | 32 | CN(C)c1ccc(-c2cc(-c3cccc(Br)c3)c3c(N)ncnc3n2)cn1
